Test results published in ChEMBL document CHEMBL4393697, “Lipophilic efficient phenylthiazoles with potent undecaprenyl pyrophosphatase inhibitory activity” (Eur J Med Chem, 2019).
Values after ≈ are worked out from the molar mass of the structure shown.

What was measured:
Staphylococcus aureus [1] = assay: Antibacterial activity against vancomycin resistant Staphylococcus aureus VRS12 assessed as reduction in bacterial cell growth incubated for 18 to 20 hrs by broth microdilution method; assay type: functional
Klebsiella pneumoniae [2] = assay: Antibacterial activity against Klebsiella pneumoniae BAA-1706 assessed as reduction in bacterial cell growth incubated for 18 to 20 hrs by broth microdilution method; assay type: functional
Pseudomonas aeruginosa [3] = assay: Bactericidal activity against Pseudomonas aeruginosa ATCC 15442 assessed as reduction in bacterial cell growth incubated for 18 to 20 hrs followed by re-plating on tryptic soy agar plates at 37 degC for 18 hrs by broth microdilution assay; assay type: functional
Streptococcus pneumoniae [4] = assay: Bactericidal activity against Methicillin resistant Streptococcus pneumoniae ATCC 700677 assessed as reduction in bacterial cell growth incubated for 18 to 20 hrs followed by re-plating on tryptic soy agar plates at 37 degC for 18 hrs by broth microdilution assay; assay type: functional
Staphylococcus aureus [5] = assay: Antibacterial activity against intracellular methicillin resistant Staphylococcus aureus USA400 infected in mouse J774 cells assessed as log10 reduction of viable bacterial cells incubated for 24 hrs followed by re-plating on tryptic soy agar plates at 37 degC for 18 to 22 hrs by broth microdilution assay; assay type: functional
Escherichia coli [6] = assay: Antibacterial activity against Escherichia coli BW25113 assessed as reduction in bacterial cell growth incubated for 18 to 20 hrs by broth microdilution method; assay type: functional
Staphylococcus aureus [7] = assay: Bactericidal activity against Staphylococcus aureus NRS107 assessed as reduction in bacterial cell growth incubated for 18 to 20 hrs followed by re-plating on tryptic soy agar plates at 37 degC for 18 hrs by broth microdilution assay; assay type: functional
Staphylococcus aureus [8] = assay: Antibacterial activity against methicillin-resistant Staphylococcus aureus USA300 assessed as reduction in bacterial cell growth incubated for 18 to 20 hrs by broth microdilution method; assay type: functional
Streptococcus pneumoniae [9] = assay: Antibacterial activity against Methicillin resistant Streptococcus pneumoniae ATCC 700677 assessed as reduction in bacterial cell growth incubated for 18 to 20 hrs by broth microdilution method; assay type: functional
Escherichia coli [10] = assay: Bactericidal activity against Escherichia coli JW55031 harboring deltatolC mutant assessed as reduction in bacterial cell growth incubated for 18 to 20 hrs followed by re-plating on tryptic soy agar plates at 37 degC for 18 hrs by broth microdilution assay; assay type: functional
Escherichia coli [11] = assay: BActericidal activity against Escherichia coli BW25113 assessed as reduction in bacterial cell growth incubated for 18 to 20 hrs followed by re-plating on tryptic soy agar plates at 37 degC for 18 hrs by broth microdilution assay; assay type: functional
Staphylococcus aureus [12] = assay: Bactericidal activity against vancomycin resistant Staphylococcus aureus VRS11a assessed as reduction in bacterial cell growth incubated for 18 to 20 hrs followed by re-plating on tryptic soy agar plates at 37 degC for 18 hrs by broth microdilution assay; assay type: functional
Enterococcus faecalis [13] = assay: Antibacterial activity against vancomycin resistant Enterococcus faecalis ATCC 51299 assessed as reduction in bacterial cell growth incubated for 18 to 20 hrs by broth microdilution method; assay type: functional
Staphylococcus aureus [14] = assay: Antibacterial activity against methicillin resistant Staphylococcus aureus USA400 assessed as reduction in bacterial cell growth incubated for 18 to 20 hrs by broth microdilution method; assay type: functional
Enterococcus faecium [15] = assay: Antibacterial activity against vancomycin resistant Enterococcus faecium ATCC 700221 assessed as reduction in bacterial cell growth incubated for 18 to 20 hrs by broth microdilution method; assay type: functional
Acinetobacter baumannii [16] = assay: Antibacterial activity against Acinetobacter baumannii ATCC 19606 assessed as reduction in bacterial cell growth incubated for 18 to 20 hrs by broth microdilution method; assay type: functional
Staphylococcus aureus [17] = assay: Bactericidal activity against methicillin resistant Staphylococcus aureus NRS119 assessed as reduction in bacterial cell growth incubated for 18 to 20 hrs followed by re-plating on tryptic soy agar plates at 37 degC for 18 hrs by broth microdilution assay; assay type: functional
Streptococcus pneumoniae [18] = assay: Antibacterial activity against Cephalosporin resistant Streptococcus pneumoniae ATCC 51916 assessed as reduction in bacterial cell growth incubated for 18 to 20 hrs by broth microdilution method; assay type: functional
Escherichia coli [19] = assay: Antibacterial activity against Escherichia coli JW55031 harboring deltatolC mutant assessed as reduction in bacterial cell growth incubated for 18 to 20 hrs by broth microdilution method; assay type: functional
[20] = system: Staphylococcus epidermidis; assay: Bactericidal activity against methicillin resistant Staphylococcus epidermidis NRS101 assessed as reduction in bacterial cell growth incubated for 18 to 20 hrs followed by re-plating on tryptic soy agar plates at 37 degC for 18 hrs by broth microdilution assay; assay type: functional
Staphylococcus aureus [21] = assay: Bactericidal activity against vancomycin resistant Staphylococcus aureus VRS12 assessed as reduction in bacterial cell growth incubated for 18 to 20 hrs followed by re-plating on tryptic soy agar plates at 37 degC for 18 hrs by broth microdilution assay; assay type: functional
J774 [22] = assay: Cytotoxicity against mouse J774 cells reduction in cell viability up to 32 ug/ml incubated for 24 hrs by MTS assay; assay type: cell-based; settings: j774, 24 h
[23] = Solubility of compound in PBS after 2 hrs by turbidity based absorbance analysis; assay type: physicochemical
Streptococcus pneumoniae [24] = assay: Bactericidal activity against Cephalosporin resistant Streptococcus pneumoniae ATCC 51916 assessed as reduction in bacterial cell growth incubated for 18 to 20 hrs followed by re-plating on tryptic soy agar plates at 37 degC for 18 hrs by broth microdilution assay; assay type: functional
Listeria monocytogenes [25] = assay: Antibacterial activity against Listeria monocytogenes ATCC 19111 assessed as reduction in bacterial cell growth incubated for 18 to 20 hrs by broth microdilution method; assay type: functional
Staphylococcus aureus [26] = assay: Antibacterial activity against Staphylococcus aureus NRS107 assessed as reduction in bacterial cell growth incubated for 18 to 20 hrs by broth microdilution method; assay type: functional
Klebsiella pneumoniae [27] = assay: Bactericidal activity against Klebsiella pneumoniae BAA-1706 assessed as reduction in bacterial cell growth incubated for 18 to 20 hrs followed by re-plating on tryptic soy agar plates at 37 degC for 18 hrs by broth microdilution assay; assay type: functional
Enterococcus faecium [28] = assay: Bactericidal activity against vancomycin resistant Enterococcus faecium ATCC 700221 assessed as reduction in bacterial cell growth incubated for 18 to 20 hrs followed by re-plating on tryptic soy agar plates at 37 degC for 18 hrs by broth microdilution assay; assay type: functional
Staphylococcus aureus [29] = assay: Bactericidal activity against vancomycin resistant Staphylococcus aureus VRS10 assessed as reduction in bacterial cell growth incubated for 18 to 20 hrs followed by re-plating on tryptic soy agar plates at 37 degC for 18 hrs by broth microdilution assay; assay type: functional
Staphylococcus aureus [30] = assay: Bactericidal activity against Staphylococcus aureus ATCC 6538 assessed as reduction in bacterial cell growth incubated for 18 to 20 hrs followed by re-plating on tryptic soy agar plates at 37 degC for 18 hrs by broth microdilution assay; assay type: functional
Pseudomonas aeruginosa [31] = assay: Antibacterial activity against Pseudomonas aeruginosa ATCC 15442 assessed as reduction in bacterial cell growth incubated for 18 to 20 hrs by broth microdilution method; assay type: functional
Enterococcus faecalis [32] = assay: Bactericidal activity against vancomycin resistant Enterococcus faecalis ATCC 51299 assessed as reduction in bacterial cell growth incubated for 18 to 20 hrs followed by re-plating on tryptic soy agar plates at 37 degC for 18 hrs by broth microdilution assay; assay type: functional
Staphylococcus aureus [33] = assay: Antibacterial activity against vancomycin resistant Staphylococcus aureus VRS10 assessed as reduction in bacterial cell growth incubated for 18 to 20 hrs by broth microdilution method; assay type: functional
Acinetobacter baumannii [34] = assay: Bactericidal activity against Acinetobacter baumannii ATCC 19606 assessed as reduction in bacterial cell growth incubated for 18 to 20 hrs followed by re-plating on tryptic soy agar plates at 37 degC for 18 hrs by broth microdilution assay; assay type: functional
Staphylococcus aureus [35] = assay: Antibacterial activity against Staphylococcus aureus ATCC 6538 assessed as reduction in bacterial cell growth incubated for 18 to 20 hrs by broth microdilution method; assay type: functional
Staphylococcus aureus [36] = assay: Antibacterial activity against methicillin resistant Staphylococcus aureus NRS119 assessed as reduction in bacterial cell growth incubated for 18 to 20 hrs by broth microdilution method; assay type: functional
[37] = system: Staphylococcus epidermidis; assay: Antibacterial activity against methicillin resistant Staphylococcus epidermidis NRS101 assessed as reduction in bacterial cell growth incubated for 18 to 20 hrs by broth microdilution method; assay type: functional
Staphylococcus aureus [38] = assay: Bactericidal activity against methicillin-resistant Staphylococcus aureus USA300 assessed as reduction in bacterial cell growth incubated for 18 to 20 hrs followed by re-plating on tryptic soy agar plates at 37 degC for 18 hrs by broth microdilution assay; assay type: functional
J774 [39] = assay: Cytotoxicity against mouse J774 assessed as reduction in cell viability at 16 ug/ml incubated for 24 hrs by MTS assay; assay type: cell-based; settings: j774, 24 h
Listeria monocytogenes [40] = assay: Bactericidal activity against Listeria monocytogenes ATCC 19111 assessed as reduction in bacterial cell growth incubated for 18 to 20 hrs followed by re-plating on tryptic soy agar plates at 37 degC for 18 hrs by broth microdilution assay; assay type: functional
Staphylococcus aureus [41] = assay: Antibacterial activity against vancomycin resistant Staphylococcus aureus VRS11a assessed as reduction in bacterial cell growth incubated for 18 to 20 hrs by broth microdilution method; assay type: functional

C/C(=N\NC(=N)N)c1sc(-c2ccc(C#Cc3cccc(O)c3)cc2)nc1C
MIC (Staphylococcus aureus [1]): 4 µg/mL (≈ 10.3 µM) | MIC (Klebsiella pneumoniae [2]): > 64 µg/mL | MBC (Pseudomonas aeruginosa [3]): > 64 µg/mL | MBC (Streptococcus pneumoniae [4]): 32 µg/mL (≈ 82.2 µM) | Activity (Staphylococcus aureus [5]): 0.92 log10CFU | MIC (Escherichia coli [6]): > 64 µg/mL | MBC (Staphylococcus aureus [7]): 4 µg/mL (≈ 10.3 µM) | MIC (Staphylococcus aureus [8]): 4 µg/mL (≈ 10.3 µM) | MIC (Streptococcus pneumoniae [9]): 16 µg/mL (≈ 41.1 µM) | MBC (Escherichia coli [10]): > 64 µg/mL | MBC (Escherichia coli [11]): > 64 µg/mL | MBC (Staphylococcus aureus [12]): 4 µg/mL (≈ 10.3 µM) | MIC (Enterococcus faecalis [13]): 32 µg/mL (≈ 82.2 µM) | MIC (Staphylococcus aureus [14]): 2 µg/mL (≈ 5.13 µM) | MIC (Enterococcus faecium [15]): ≤ 0.5 µg/mL | MIC (Acinetobacter baumannii [16]): > 64 µg/mL | MBC (Staphylococcus aureus [17]): 4 µg/mL (≈ 10.3 µM) | MIC (Streptococcus pneumoniae [18]): 8 µg/mL (≈ 20.5 µM) | MIC (Escherichia coli [19]): 64 µg/mL (≈ 164 µM) | MBC [20]: 2 µg/mL (≈ 5.13 µM) | MBC (Staphylococcus aureus [21]): 4 µg/mL (≈ 10.3 µM) | Activity (J774 [22]): Non-Toxic | solubility kinetic at 2 h [23]: 55 µM (≈ 21.4 µg/mL) | MBC (Streptococcus pneumoniae [24]): 32 µg/mL (≈ 82.2 µM) | MIC (Listeria monocytogenes [25]): 8 µg/mL (≈ 20.5 µM) | MIC (Staphylococcus aureus [26]): 4 µg/mL (≈ 10.3 µM) | MBC (Klebsiella pneumoniae [27]): > 64 µg/mL | MBC (Enterococcus faecium [28]): 1 µg/mL (≈ 2.57 µM) | MBC (Staphylococcus aureus [29]): 4 µg/mL (≈ 10.3 µM) | MBC (Staphylococcus aureus [30]): 4 µg/mL (≈ 10.3 µM) | MIC (Pseudomonas aeruginosa [31]): > 64 µg/mL | MBC (Enterococcus faecalis [32]): 64 µg/mL (≈ 164 µM) | MIC (Staphylococcus aureus [33]): 4 µg/mL (≈ 10.3 µM) | MBC (Acinetobacter baumannii [34]): > 64 µg/mL | MIC (Staphylococcus aureus [35]): 2 µg/mL (≈ 5.13 µM) | MIC (Staphylococcus aureus [36]): 2 µg/mL (≈ 5.13 µM) | MIC [37]: 2 µg/mL (≈ 5.13 µM) | MBC (Staphylococcus aureus [38]): 4 µg/mL (≈ 10.3 µM) | Activity (J774 [39]): Non-Toxic | MBC (Listeria monocytogenes [40]): 64 µg/mL (≈ 164 µM) | MIC (Staphylococcus aureus [41]): 4 µg/mL (≈ 10.3 µM)
